Common to all, as to format: toxicity, cell-based
One series relates to Fibroblast. In words: Incucyte cell viability with human fibroblast. Conditions: 10 µM, compound concentration 10 uM.
For another series, the system named is U2OS. The experiment in a line: Incucyte cell viability with U2OS. Conditions: human, 10 µM, compound concentration 10 uM.
In another series the test system is HEK-293T. In words: Incucyte cell viability with HEK293T. Conditions: human, 10 µM, compound concentration 10 uM.
Setting [1] is: 0 h, replicate number 1, timepoint 0 hours.
[2] abbreviates: 0 h, replicate number 2, timepoint 0 hours.
Where [3] appears, read: 6 h, replicate number 1, timepoint 6 hours.
[4] abbreviates: 6 h, replicate number 2, timepoint 6 hours.
[5] abbreviates: 12 h, replicate number 1, timepoint 12 hours.
Where [6] appears, read: 18 h, replicate number 1, timepoint 18 hours.
Where [7] appears, read: 18 h, replicate number 2, timepoint 18 hours.
Setting [8] is: 24 h, replicate number 1, timepoint 24 hours.
[9] abbreviates: 24 h, replicate number 2, timepoint 24 hours.
Setting [10] is: 12 h, replicate number 2, timepoint 12 hours.

The source of these data is ChEMBL document CHEMBL5058564, “EUbOPEN Chemogenomics Library 2 (Incucyte)” (2022).
Note: unitless GR value; below 1 slowed growth and below 0 cell loss.

Consider `CN(C)CCCc1cc(C(=O)Nc2ccc(-c3ccncc3)cc2)ccc1O.Cl.Cl`, for which the “Growth Rate” value in the series with Fibroblast (setting [1]) was 0.85; with Fibroblast (setting [2]) it was 0.18; in the series with Fibroblast (setting [3]), 0.34; with Fibroblast (setting [4]) it was 0.16; in the series with Fibroblast (setting [5]) it was 0.34; in the series with Fibroblast (setting [6]), 0. For the same molecule, the “Growth Rate” value with Fibroblast (setting [7]) is listed as 0.66; in the series on Fibroblast (setting [8]), -0.07; in the series on Fibroblast (setting [9]), 0.69; in the series on U2OS (setting [1]), -0.09; with U2OS (setting [2]) it was -0.87; in the series with HEK-293T (setting [1]) it was 0.52. Also, the “Growth Rate” value came out at 0.49 with HEK-293T (setting [2]); 0.98 with HEK-293T (setting [3]); 0.48 with HEK-293T (setting [4]); 0.69 in the series on HEK-293T (setting [5]); 0.93 in the series with HEK-293T (setting [10]); 0.69 in the series with HEK-293T (setting [6]). Further, the “Growth Rate” value in the series with HEK-293T (setting [8]) was 0.67; in the series on HEK-293T (setting [9]), 0.98.

As for `CC1=C(C)C(=O)C(C(C)(C)CC(=O)N(CCCCSC[C@H]2O[C@@H](n3cnc4c(N)ncnc43)[C@H](O)[C@@H]2O)Cc2cccc(-c3ccc(Cl)cc3)c2)=C(C)C1=O`, the “Growth Rate” value in the series with Fibroblast (setting [1]) is recorded as 0.23; in the series with Fibroblast (setting [2]) it was -0.71; in the series on Fibroblast (setting [3]), -0.29; with Fibroblast (setting [4]), 0.84; in the series on Fibroblast (setting [5]), 0.78; with U2OS (setting [3]), 0.21. The “Growth Rate” value came out at 0.98 with U2OS (setting [4]); 0.36 in the series with U2OS (setting [5]); 0.93 in the series on U2OS (setting [10]); 0.51 in the series with U2OS (setting [6]); 0.91 in the series with U2OS (setting [7]); 0.53 in the series on U2OS (setting [8]). The “Growth Rate” value in the series with U2OS (setting [9]) was 0.95; in the series with HEK-293T (setting [1]), -0.9; with HEK-293T (setting [2]) it was -1; with HEK-293T (setting [3]), 0.57; in the series with HEK-293T (setting [5]), 0.2; in the series with HEK-293T (setting [6]), 0.17. Besides, in the series on HEK-293T (setting [8]), the “Growth Rate” value is given as 0.16.

Consider `CCc1ccccc1C(=O)Nc1n[nH]c2c(C)c(F)c(C3C(C#N)=C(C)N(C)C(C)=C3C#N)cc12` [BAY-3827], for which the “Growth Rate” value in the series on Fibroblast (setting [1]) is listed as 0.51; with Fibroblast (setting [2]), -0.4; with Fibroblast (setting [3]), 0.12; with Fibroblast (setting [5]), 0.64; in the series on Fibroblast (setting [6]), 0.79; in the series with Fibroblast (setting [8]), 0.56. Besides, the “Growth Rate” value in the series with U2OS (setting [2]) is on record as 0.74; in the series with U2OS (setting [9]), 0.87; with HEK-293T (setting [2]) it was -1; in the series with HEK-293T (setting [3]) it was 0.43; in the series with HEK-293T (setting [5]), 0.35; in the series on HEK-293T (setting [6]), 0.5. For the same molecule, the “Growth Rate” value in the series on HEK-293T (setting [8]) was found to be 0.55.

On to `CCC(C)n1ncn(-c2ccc(N3CCN(c4ccc(OC[C@@H]5CO[C@@](Cn6cncn6)(c6ccc(Cl)cc6Cl)O5)cc4)CC3)cc2)c1=O.CCC(C)n1ncn(-c2ccc(N3CCN(c4ccc(OC[C@H]5CO[C@](Cn6cncn6)(c6ccc(Cl)cc6Cl)O5)cc4)CC3)cc2)c1=O` (some centres undefined), for which the “Growth Rate” value in the series with Fibroblast (setting [1]) is reported as 0.6; in the series with Fibroblast (setting [2]), -0.02; with Fibroblast (setting [9]), 0.95; with U2OS (setting [1]), -0.09; in the series on U2OS (setting [8]) it was 0.73; with U2OS (setting [9]) it was 0.94. Moreover, the “Growth Rate” value in the series on HEK-293T (setting [3]) is -0.37; in the series with HEK-293T (setting [4]), 0.11; with HEK-293T (setting [5]) it was -0.28; in the series on HEK-293T (setting [10]) it was 0.15; with HEK-293T (setting [6]) it was 0.44; with HEK-293T (setting [7]), 0.02. Moreover, the “Growth Rate” value in the series with HEK-293T (setting [8]) was -0.08; in the series on HEK-293T (setting [9]), 0.33.

Consider `CN(CCN1CCC(OC(=O)Nc2ccccc2-c2ccccc2)CC1)C(=O)c1ccc(CN2CCC(C(N)=O)CC2)cc1` [REVEFENACIN], for which the “Growth Rate” value with Fibroblast (setting [2]) came to 0.62; with Fibroblast (setting [4]) it was 0.71; in the series with Fibroblast (setting [5]) it was 0.73; with Fibroblast (setting [10]), 0.65; in the series with Fibroblast (setting [6]) it was 0.65; with Fibroblast (setting [7]), 0.9. Further, the “Growth Rate” value in the series with Fibroblast (setting [8]) is 0.56; with Fibroblast (setting [9]) it was 0.97; with U2OS (setting [1]), 0.88; with U2OS (setting [2]), 0.11; in the series on HEK-293T (setting [3]) it was 0.97; in the series with HEK-293T (setting [5]), 0.95. The “Growth Rate” value in the series on HEK-293T (setting [10]) turned out to be 0.59; with HEK-293T (setting [6]), 0.98; in the series with HEK-293T (setting [7]) it was 0.74; with HEK-293T (setting [8]), 0.9; with HEK-293T (setting [9]), 0.78.

As for `C[C@@H]1CC(=O)Nc2cccc(-c3ccc4c(c3)c(-c3cnn(C)c3)nn4C)c2N1`, the “Growth Rate” value in the series on Fibroblast (setting [3]) is reported as 0.21; in the series with U2OS (setting [1]), -0.4; in the series with U2OS (setting [3]), 0.24; with U2OS (setting [5]), 0.53; in the series on U2OS (setting [6]), 0.7; in the series with U2OS (setting [8]), 0.85. The “Growth Rate” value in the series with HEK-293T (setting [2]) is on record as 0.93; in the series with HEK-293T (setting [3]), 0.14; in the series on HEK-293T (setting [4]), 0.26; in the series on HEK-293T (setting [5]), 0.43; in the series with HEK-293T (setting [10]), 0.42; with HEK-293T (setting [6]), 0.41. Moreover, the “Growth Rate” value is on record as 0.45 with HEK-293T (setting [7]), 0.38 in the series on HEK-293T (setting [8]) and 0.43 with HEK-293T (setting [9]).

As to `NC(=O)c1ccc(CNC(=O)NC[C@H]2CN(Cc3ccc(Cl)c(Cl)c3)CCO2)cc1`, the “Growth Rate” value is on record as 0.21 in the series on Fibroblast (setting [1]); 0.11 with U2OS (setting [2]); 0.32 in the series with U2OS (setting [3]); 0.8 in the series on U2OS (setting [5]); 0.91 with U2OS (setting [6]); 0.54 in the series on HEK-293T (setting [2]). Further, the “Growth Rate” value in the series on HEK-293T (setting [3]) is 0.47; in the series with HEK-293T (setting [5]) it was 0.86; in the series on HEK-293T (setting [6]), 0.88; with HEK-293T (setting [7]), 1; with HEK-293T (setting [8]), 0.88; in the series on HEK-293T (setting [9]), 0.8.

`Cc1cc(CN)cc(C)c1-c1ncn(C)c1-c1ccnc2cc(F)ccc12`: the “Growth Rate” value in the series on Fibroblast (setting [2]) is 0.5; with Fibroblast (setting [3]), 0.31; with Fibroblast (setting [5]), 0.5; in the series on Fibroblast (setting [10]) it was 0.83; in the series with Fibroblast (setting [6]), 0.18; in the series with Fibroblast (setting [7]) it was 0.64. Further, the “Growth Rate” value is 0.09 in the series on Fibroblast (setting [8]); 0.58 in the series with Fibroblast (setting [9]); -0.16 in the series on U2OS (setting [1]); -0.67 with U2OS (setting [2]); 0.54 with U2OS (setting [3]); 0.18 with U2OS (setting [4]). Further, the “Growth Rate” value is recorded as 0.64 in the series with U2OS (setting [5]); 0.55 in the series on U2OS (setting [10]); 0.92 in the series with U2OS (setting [6]); 0.73 with U2OS (setting [7]); 0.79 in the series on U2OS (setting [8]); 0.31 in the series with HEK-293T (setting [2]). In addition, the “Growth Rate” value in the series with HEK-293T (setting [3]) amounted to 0.86; with HEK-293T (setting [4]) it was 0.7; in the series on HEK-293T (setting [5]), 0.93; in the series with HEK-293T (setting [10]), 0.96; with HEK-293T (setting [6]) it was 0.79; in the series on HEK-293T (setting [7]), 0.92. Besides, the results for the “Growth Rate” value in the series on HEK-293T (setting [8]) and in the series with HEK-293T (setting [9]) were 0.87 and 0.92, respectively.

With `COc1cc2c(Oc3ccc(NC(=O)C4(C(=O)Nc5ccc(F)cc5)CC4)cc3F)ccnc2cc1OCCCN1CCOCC1` [FORETINIB], the “Growth Rate” value in the series with Fibroblast (setting [3]) is listed as -0.99; with Fibroblast (setting [4]), -1; with Fibroblast (setting [5]), -0.98; in the series with Fibroblast (setting [10]), -0.95; in the series on Fibroblast (setting [6]) it was -0.93; with Fibroblast (setting [7]), -0.9. Besides, the “Growth Rate” value in the series on Fibroblast (setting [8]) was -0.88; in the series on Fibroblast (setting [9]), -0.91; in the series with U2OS (setting [3]), 0.16; with U2OS (setting [4]), -0.08; in the series on U2OS (setting [5]) it was -0.1; in the series with U2OS (setting [10]) it was -0.03. In addition, the “Growth Rate” value is -0.03 with U2OS (setting [6]); 0.01 with U2OS (setting [7]); 0 in the series on U2OS (setting [8]); -0.97 in the series on HEK-293T (setting [3]); -0.98 with HEK-293T (setting [4]); -0.79 in the series with HEK-293T (setting [5]). Besides, the “Growth Rate” value is recorded as -0.89 in the series with HEK-293T (setting [10]); -0.65 with HEK-293T (setting [6]); -0.82 in the series on HEK-293T (setting [7]); -0.54 in the series on HEK-293T (setting [8]); -0.7 in the series on HEK-293T (setting [9]).

For `Cc1nn(C)c(C)c1-c1cccc2c1CC[C@H](N(C)C)C2`, the “Growth Rate” value with Fibroblast (setting [1]) is listed as 0.48; in the series on Fibroblast (setting [2]) it was -0.09; in the series with Fibroblast (setting [5]), 0.75; in the series with Fibroblast (setting [6]), 0.49; in the series with Fibroblast (setting [8]) it was 0.61; in the series with U2OS (setting [1]), -0.3. Besides, the “Growth Rate” value in the series on U2OS (setting [2]) was 0.01; with U2OS (setting [3]), 0.52; in the series with U2OS (setting [4]) it was 0.91; in the series on U2OS (setting [5]) it was 0.78; in the series with U2OS (setting [10]), 0.8; in the series on U2OS (setting [6]) it was 0.69. Moreover, the “Growth Rate” value is 0.97 in the series on U2OS (setting [7]); 0.86 with U2OS (setting [8]); 0.99 with U2OS (setting [9]); 0.25 in the series on HEK-293T (setting [2]); 0.95 in the series on HEK-293T (setting [3]); 0.97 with HEK-293T (setting [5]). The “Growth Rate” value is 0.97 with HEK-293T (setting [6]) and 0.9 with HEK-293T (setting [8]).
